Test results taken from patent publication US8952024B2, “Herbicidal pyrimidone derivatives” (E I du Pont de Nemours and Company, priority 2009, dated 2015).

How the values were obtained:
Format in all cases: in vivo
[1] = test system: wheat (Triticum aestivum); test: Test B pre-/postemergence plant response
Excerpt: (§1) Seeds of plant species selected from blackgrass (Alopecurus myosuroides), downy bromegrass (Bromus tectorum), green foxtail (Setaria viridis), Italian ryegrass (Lolium multiflorum), wheat (Triticum aestivum), wild oat (Avena fatua), deadnettle (henbit deadnettle, Lamium amplexicaule), galium (catchweed bedstraw, Galium aparine), bermudagrass (Cynodon dactylon), Surinam grass (Brachiaria decumbens), cocklebur (Xanthium strumarium), corn (Zea mays), large crabgrass (Digitaria sanguinalis), woolly cupgrass (Eriochloa villosa), giant foxtail (Setaria faberii), goosegrass (Eleusine indica), johnsongrass (Sorghum halepense), kochia (Kochia scoparia), lambsquarters (Chenopodium album), morningglory (Ipomoea coccinea), nightshade (eastern black nightshade, Solanum ptycanthum), yellow nutsedge (Cyperus esculentus), pigweed (Amaranthus retroflexus), ragweed (common ragweed, Ambrosia elatior), Russian thistle (Salsola kali), soybean (Glycine max), sunflower (common oilseed sunflower, Helianthus annuus) and velvetleaf (Abutilon theophrasti) were planted into a blend of loam soil and sand and treated preemergence with test compounds formulated in a non-phytotoxic solvent mixture which included a surfactant.
(§2) At the same time, plants selected from these crop and weed species and also winter barley (Hordeum vulgare), canarygrass (Phalaris minor), chickweed (Stellaria media) and windgrass (Apera spica-venti) were planted in pots containing Redi-Earth® planting medium (Scotts Company, 14111 Scottslawn Road, Marysville, Ohio 43041) comprising spaghnum peat moss, vermiculite, wetting agent and starter nutrients and treated with postemergence applications of some of the test chemicals formulated in the same manner. Plants ranged in height from 2 to 18 cm (1- to 4-leaf stage) for postemergence treatments.
(§3) Treated plants and controls were maintained in a greenhouse for 13 to 15 days, after which time all treated plants were visually evaluated and compared to controls. Plant response ratings, summarized in Table B, are based on a scale of 0 to 100 where 0 is no effect and 100 is complete control. A dash (-) response means no test result.

[2] = test system: Surinam grass (Brachiaria decumbens); test: Test B pre-/postemergence plant response
Excerpt: as §1, §2, §3

soybean (Glycine max) = test: Test B pre-/postemergence plant response
Excerpt: as §1, §2, §3

[3] = test system: pigweed (Amaranthus retroflexus); test: Test B pre-/postemergence plant response
Excerpt: as §1, §2, §3

[4] = test system: velvetleaf (Abutilon theophrasti); test: Test B pre-/postemergence plant response
Excerpt: as §1, §2, §3

[5] = test system: lambsquarters (Chenopodium album); test: Test B pre-/postemergence plant response
Excerpt: as §1, §2, §3

wild oat (Avena fatua) = test: Test B pre-/postemergence plant response
Excerpt: as §1, §2, §3

[6] = test system: blackgrass (Alopecurus myosuroides); test: Test B pre-/postemergence plant response
Excerpt: as §1, §2, §3

[7] = test system: cocklebur (Xanthium strumarium); test: Test B pre-/postemergence plant response
Excerpt: as §1, §2, §3

kochia (Kochia scoparia) = test: Test B pre-/postemergence plant response
Excerpt: as §1, §2, §3

[8] = test system: windgrass (Apera spica-venti); test: Test B postemergence plant response; settings: Postemergence
In short: (§4)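 Plants grown in peat/vermiculite medium were sprayed postemergence at 2–18 cm height (1- to 4-leaf stage). After 13–15 days in the greenhouse, response was rated visually against untreated controls on a 0–100 scale (0 no effect, 100 complete control).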

[9] = test system: canarygrass (Phalaris minor); test: Test B postemergence plant response; settings: Postemergence
In short: as §4

[10] = test system: chickweed (Stellaria media); test: Test B postemergence plant response; settings: Postemergence
In short: as §4

[11] = 250 g ai/ha, Preemergence, 0 to 100 scale
[12] = Postemergence, 31 g ai/ha, scale 0 to 100 (0 no effect, 100 complete control)
[13] = Postemergence, 62 g ai/ha, scale 0 (no effect) to 100 (complete control), 13 to 15 days
[14] = Postemergence, 125 g ai/ha, visual rating after 13 to 15 days, scale 0 (no effect) to 100 (complete control)
[15] = Postemergence, 250 g ai/ha, scale 0 to 100
[16] = Preemergence, 31 g ai/ha, scale 0 to 100 (0 no effect, 100 complete control)
[17] = Preemergence, 62 g ai/ha, scale 0 to 100 (0 no effect, 100 complete control)
[18] = Preemergence, 125 g ai/ha, 0 to 100 scale
[19] = 31 g ai/ha, scale 0 to 100 (0 no effect, 100 complete control)
[20] = 62 g ai/ha, scale 0 (no effect) to 100 (complete control), 13 to 15 days
[21] = 125 g ai/ha, visual rating after 13 to 15 days, scale 0 (no effect) to 100 (complete control)
[22] = Postemergence, 31 g ai/ha, 0 to 100 scale (0 no effect, 100 complete control)
[23] = Postemergence, 125 g ai/ha, scale 0 to 100 (0 no effect, 100 complete control)
[24] = Postemergence, 250 g ai/ha, scale 0 to 100 (0 no effect, 100 complete control), 13 to 15 days
[25] = 31 g ai/ha, 0 to 100 scale (0 no effect, 100 complete control)
[26] = 125 g ai/ha, scale 0 to 100 (0 no effect, 100 complete control)
[27] = 250 g ai/ha, scale 0 to 100 (0 no effect, 100 complete control), 13 to 15 days

Cc1ccccc1-n1c(-c2ccccc2)ncc(C(=O)C2=C(O)CCCC2=O)c1=O [Compound 12]
Plant response rating, Wheat [1, 11]: 0 | Plant response rating, Wheat [1, 12]: 0 | Plant response rating, Wheat [1, 13]: 0 | Plant response rating, Wheat [1, 14]: 0 | Wheat plant response rating [1, 15]: 0 | Plant response rating, Wheat [1, 16]: 0 | Plant response rating, Wheat [1, 17]: 0 | Wheat plant response rating [1, 18]: 0 | Plant response rating, Surinam Grass [2, 11]: 100 | Plant response rating, Surinam Grass [2, 12]: 25 | Plant response rating, Surinam Grass [2, 13]: 55 | Plant response rating, Surinam Grass [2, 14]: 65 | Surinam Grass plant response rating [2, 15]: 85 | Plant response rating, Surinam Grass [2, 16]: 35 | Plant response rating, Surinam Grass [2, 17]: 60 | Surinam Grass plant response rating [2, 18]: 95 | Plant response rating, Soybean (soybean (Glycine max); [11]): 95 | Plant response rating, Soybean (soybean (Glycine max); [12]): 98 | Plant response rating, Soybean (soybean (Glycine max); [13]): 100 | Plant response rating, Soybean (soybean (Glycine max); [14]): 100 | Soybean plant response rating (soybean (Glycine max); [15]): 100 | Plant response rating, Soybean (soybean (Glycine max); [16]): 60 | Plant response rating, Soybean (soybean (Glycine max); [17]): 65 | Soybean plant response rating (soybean (Glycine max); [18]): 80 | Plant response rating, Pigweed [3, 11]: 100 | Plant response rating, Pigweed [3, 12]: 95 | Plant response rating, Pigweed [3, 13]: 95 | Plant response rating, Pigweed [3, 14]: 98 | Pigweed plant response rating [3, 15]: 100 | Plant response rating, Pigweed [3, 16]: 100 | Plant response rating, Pigweed [3, 17]: 100 | Pigweed plant response rating [3, 18]: 100 | Plant response rating, Velvetleaf [4, 11]: 100 | Plant response rating, Velvetleaf [4, 12]: 80 | Plant response rating, Velvetleaf [4, 13]: 85 | Plant response rating, Velvetleaf [4, 14]: 98 | Velvetleaf plant response rating [4, 15]: 100 | Plant response rating, Velvetleaf [4, 16]: 90 | Plant response rating, Velvetleaf [4, 17]: 100 | Velvetleaf plant response rating [4, 18]: 100 | Plant response rating, Lambsquarters [5, 11]: 100 | Plant response rating, Lambsquarters [5, 12]: 80 | Plant response rating, Lambsquarters [5, 13]: 85 | Plant response rating, Lambsquarters [5, 14]: 98 | Lambsquarters plant response rating [5, 15]: 98 | Plant response rating, Lambsquarters [5, 16]: 100 | Plant response rating, Lambsquarters [5, 17]: 100 | Lambsquarters plant response rating [5, 18]: 100 | Plant response rating, Oat, Wild (wild oat (Avena fatua); [11]): 5 | Plant response rating, Oat, Wild (wild oat (Avena fatua); [12]): 0 | Plant response rating, Oat, Wild (wild oat (Avena fatua); [13]): 5 | Plant response rating, Oat, Wild (wild oat (Avena fatua); [14]): 20 | Oat, Wild plant response rating (wild oat (Avena fatua); [15]): 20 | Plant response rating, Oat, Wild (wild oat (Avena fatua); [16]): 0 | Plant response rating, Oat, Wild (wild oat (Avena fatua); [17]): 0 | Oat, Wild plant response rating (wild oat (Avena fatua); [18]): 0 | Plant response rating, Blackgrass [6, 11]: 10 | Plant response rating, Blackgrass [6, 12]: 10 | Plant response rating, Blackgrass [6, 13]: 10 | Plant response rating, Blackgrass [6, 14]: 10 | Blackgrass plant response rating [6, 15]: 20 | Plant response rating, Blackgrass [6, 16]: 0 | Plant response rating, Blackgrass [6, 17]: 0 | Blackgrass plant response rating [6, 18]: 5 | Plant response rating, Cocklebur [7, 11]: 100 | Plant response rating, Cocklebur [7, 12]: 70 | Plant response rating, Cocklebur [7, 13]: 98 | Plant response rating, Cocklebur [7, 14]: 100 | Cocklebur plant response rating [7, 15]: 100 | Plant response rating, Cocklebur [7, 16]: 25 | Plant response rating, Cocklebur [7, 17]: 80 | Cocklebur plant response rating [7, 18]: 98 | Plant response rating, Kochia (kochia (Kochia scoparia); [11]): 100 | Plant response rating, Kochia (kochia (Kochia scoparia); [12]): 20 | Plant response rating, Kochia (kochia (Kochia scoparia); [13]): 20 | Plant response rating, Kochia (kochia (Kochia scoparia); [14]): 60 | Kochia plant response rating (kochia (Kochia scoparia); [15]): 65 | Plant response rating, Kochia (kochia (Kochia scoparia); [16]): 15 | Plant response rating, Kochia (kochia (Kochia scoparia); [17]): 100 | Kochia plant response rating (kochia (Kochia scoparia); [18]): 100 | Plant response rating, Windgrass [8, 19]: 10 | Plant response rating, Windgrass [8, 20]: 40 | Plant response rating, Windgrass [8, 21]: 45 | Windgrass plant response rating ([8]; 250 g ai/ha, scale 0 to 100): 50 | Plant response rating, Canarygrass [9, 19]: 0 | Plant response rating, Canarygrass [9, 20]: 5 | Plant response rating, Canarygrass [9, 21]: 5 | Canarygrass plant response rating ([9]; 250 g ai/ha, scale 0 to 100): 40 | Plant response rating, Chickweed [10, 19]: 100 | Plant response rating, Chickweed [10, 20]: 100 | Plant response rating, Chickweed [10, 21]: 100 | Chickweed plant response rating ([10]; 250 g ai/ha, scale 0 to 100): 100

CCCn1c(-c2cccc(Cl)c2)ncc(C(=O)C2=C(O)CCCC2=O)c1=O [Compound 190]
Plant response rating, Wheat [1, 22]: 0 | Plant response rating, Wheat [1, 23]: 30 | Plant response rating, Wheat [1, 24]: 30 | Plant response rating, Surinam Grass [2, 22]: 60 | Plant response rating, Surinam Grass [2, 23]: 75 | Plant response rating, Surinam Grass [2, 24]: 90 | Plant response rating, Soybean (soybean (Glycine max); [22]): 80 | Plant response rating, Soybean (soybean (Glycine max); [23]): 95 | Plant response rating, Soybean (soybean (Glycine max); [24]): 98 | Plant response rating, Pigweed [3, 22]: 65 | Plant response rating, Pigweed [3, 23]: 100 | Plant response rating, Pigweed [3, 24]: 100 | Plant response rating, Velvetleaf [4, 22]: 100 | Plant response rating, Velvetleaf [4, 23]: 100 | Plant response rating, Velvetleaf [4, 24]: 100 | Plant response rating, Lambsquarters [5, 22]: 80 | Plant response rating, Lambsquarters [5, 23]: 100 | Plant response rating, Lambsquarters [5, 24]: 100 | Plant response rating, Oat, Wild (wild oat (Avena fatua); [22]): 0 | Plant response rating, Oat, Wild (wild oat (Avena fatua); [23]): 40 | Plant response rating, Oat, Wild (wild oat (Avena fatua); [24]): 50 | Blackgrass plant response rating (0 to 100 scale) ([6]; 62 g ai/ha, postemergence, 0 is no effect, 100 is complete control, 13 to 15 days): 30 | Plant response rating, Blackgrass [6, 22]: 5 | Plant response rating, Blackgrass [6, 23]: 35 | Plant response rating, Blackgrass [6, 24]: 40 | Plant response rating, Cocklebur [7, 22]: 40 | Plant response rating, Cocklebur [7, 23]: 95 | Plant response rating, Cocklebur [7, 24]: 100 | Plant response rating, Kochia (kochia (Kochia scoparia); [22]): 0 | Plant response rating, Kochia (kochia (Kochia scoparia); [23]): 98 | Plant response rating, Kochia (kochia (Kochia scoparia); [24]): 98 | Plant response rating, Windgrass [8, 25]: 15 | Plant response rating, Windgrass [8, 26]: 65 | Plant response rating, Windgrass [8, 27]: 65 | Plant response rating, Canarygrass [9, 25]: 0 | Plant response rating, Canarygrass [9, 26]: 25 | Plant response rating, Canarygrass [9, 27]: 55 | Plant response rating, Chickweed [10, 26]: 100 | Plant response rating, Chickweed [10, 27]: 100
